Marks after values point to notes of the source that are not given here.
How the values were obtained:
Type in all cases: in vivo, mouse
KK-A^y/Ta Jcl mice [1] = experiment: Weights of pancreas, liver and kidney at autopsy (Example 3)
Procedure: On Day 28 of administration of each compound in the form of an admixture with a food, furthermore, each animal after blood had been drawn from the tail vein was treated through individual forced oral administration of the Test Compound 2 in the form of the solutions individually consisting of 0.2, 0.6, 2.0 and 6.0 mg/mL-0.5% CMC suspension in each 5 mL/kg portion, as well as the Control Compound 1 in the form of the solutions individually consisting of 2.0 and 6 mg/mL-0.5% CMC suspension in each 5 ml/kg portion, followed by blood drawing 30 min. later and autopsy to thereby measure the weights of the pancreas, liver and kidney, whereby the control group was treated through administration of the 0.5% CMC suspension in the same portion.

KK-A^y/Ta Jcl mice [2] = experiment: Plasma TC, TG, blood-sugar, IRI and IRG levels 3 hours subsequent to the glucose-loading test (Example 1); conditions: 3 hours subsequent to glucose-loading test, after 14 days 30 mg/kg p.o.
Procedure: As from Day 14 afterwards, the animals after being fasted for 18 hours or more were loaded orally with a glucose solution (2 g/kg, 10 mL/kg), whereby the blood-sugar levels were measured before, and 120 min. after, the said glucose loading. Each of the compounds was given orally to the animals 3 hours prior to the glucose loading, and the whole blood was drawn from each of the animals under anesthesia. Each of the said blood samples was centrifuged to yield a blood plasma, and the resultant blood plasmas were all preserved under freezing in a ultra-low-temperature freezer for subsequent use in the below-described measurements.
The blood-sugar level, total cholesterol level (hereinafter referred to briefly as “TC level”) and triglyceride level (hereinafter referred to briefly as “TG level”) were detected individually in accordance with the hexokinase/G-6-PDH method, enzyme method and GPO/HDAOS method, and measured with use of Biochemical Auto-Analyzer (Model AU 400, manufactured by Olympus Co. of Japan). The plasma insulin level (hereinafter referred to briefly as “IRI level”) and the plasma glucagon level (hereinafter referred to briefly as “IRG level”) were detected individually with the ELISA method (Lebisinsulin Mouse Insulin Kit, produced by K.K. Shibayagi of Japan) and the ELISA method (YK090 Glucagon EIA Kit, produced by K.K. Yanaihara Kenkyuu-sho of Japan), followed by measurement with use of a plate reader (Immuno Mini NJ-2300, Nalge Nunc International K.K. of Japan).
(§1) The blood-sugar, TC, TG, IRI and IRG levels and the body weight were expressed as a mean value±standard deviation as calculated for each group of animals. With reference to the significance test between the group treated through administration of the medium and each group treated through administration of the compound, the F test was effected to analyze the data and then, the Student's t-test and Aspin-Welch's t-test were used in cases where the variance between the two groups was determined to be equal and unequal, respectively. Referring to the significance level, less than 5% (p<0.05) was considered significant, and the significance level was expressed as divided into the two events of less than 1% (**: p<0.01) and less than 5% (*: p<0.05).

KK-A^y/Ta Jcl mice [3] = experiment: Blood-sugar level, administration as admixture with food (Example 2)
Procedure: (§2) KK-A^y/Ta Jcl Mice (male, 6- to 7-weeks aged, the number of cases; 8 animals) were treated through individual administration, in the form of an admixture with a food, of the Test Compound 2 (N-allyl-N-{(2E)-3-[4-({4-[amino(imino)methyl]phenoxy}-carbonyl)phenyl]-2-methyl-2-propenoyl}glycine/dimethane-sulfonate) of the present invention and the Control Compound 1 (5-(4-[2-(5-ethylpyridine-2-yl)ethoxy]benzyl)-1,3-thiazolidine-2,4-dione; pioglitazone) at the daily dose of 16.8 mg/100 g-food for 7 consecutive days, whereby the control group was fed with an ordinary food alone.
(§3) Blood was drawn from the tail vein individually on the day (Day 1) preceding to administration of the Test Compound in the form of an admixture with a food, and on Days 2, 5, 7 and 14 of administration, and the blood samples were subjected to measurement of the blood-sugar level in accordance with the same procedure as described in Example 1, while, at the same time, the animals were weighed.

KK-A^y/Ta Jcl mice [4] = experiment: Blood-sugar level after single and repeated oral administration (Example 1)
Procedure: On the day of initiation of administration (Day 1 of Administration), the obese/spontaneously type II diabetic mice; KK-A^y/Ta Jcl mice (male, 6-weeks aged, n=8) were treated through individual oral administration of the Test Compound 1 (ethyl N-allyl-N—[(E)-2-methyl-3-[4-(4-amidinophenoxycarbonyl)-phenyl]propenoyl]aminoacetate/methanesulfonate) of the present invention and the Control Compound 1 (5-{4-[2-(5-ethylpyridine-2-yl)ethoxy]benzyl}-1,3-thiazolidine-2,4-dione; pioglitazone) at the daily dose of 30 mg/kg, or the control medium (0.5% CMC), and blood was drawn from each animal through the orbital venous plexus 6 hours after administration. The blood-sugar levels were measured in accordance with the enzyme electrode method by use of Antosense II (manufactured by Daikin Kogyo KK of Japan). The said test was carried out while the animals were allowed free access to food and water.
Following the above-described single administration, the repeated, once-a-day forced oral administration of each compound was performed at the same daily dose for the total period of 14 consecutive days. On Days 3 and 11, blood was drawn in the same manner as described above 6 hours after administration of each compound, followed by measurement of the blood-sugar level.
as §1

[5] = Body weight after repeated administration for 14 days (Example 1); conditions: after repeated administration for 14 consecutive days
Procedure: Following the above-described single administration, the repeated, once-a-day forced oral administration of each compound was performed at the same daily dose for the total period of 14 consecutive days. […] The blood-sugar, TC, TG, IRI and IRG levels and the body weight were expressed as a mean value±standard deviation as calculated for each group of animals. With reference to the significance test between the group treated through administration of the medium and each group treated through administration of the compound, the F test was effected to analyze the data and then, the Student's t-test and Aspin-Welch's t-test were used in cases where the variance between the two groups was determined to be equal and unequal, respectively.

[6] = Body weight, administration as admixture with food (Example 2)
Procedure: as §2, §3

[7] = autopsy Day 28, Dose 16.8 (g/100 g-food)
[8] = day preceding administration (baseline), 16.8 mg/100 g-food group
[9] = repeated once-a-day oral 30 mg/kg, 6 hours after administration

CCc1ccc(CCOc2ccc(CC3SC(=O)NC3=O)cc2)nc1 (stereo not drawn) [Control Compound 1, 5-{4-[2-(5-ethylpyridine-2-yl)ethoxy]benzyl}-1,3-thiazolidine-2,4-dione, reference compound]
Weight of the liver (in words) (KK-A^y/Ta Jcl mice [1]; autopsy Day 28): raise further the weight of the liver
Weight Kidney (KK-A^y/Ta Jcl mice [1]; [7]): 0.49 ± 0.02 g
Weight Liver (KK-A^y/Ta Jcl mice [1]; [7]): 2.62 ± 0.11 g
Weight Pancreas (KK-A^y/Ta Jcl mice [1]; [7]): 0.36 ± 0.01 g
Blood-sugar level (KK-A^y/Ta Jcl mice [2]): 289.9 ± 20.6 mg/dL
IRG (plasma glucagon level) (KK-A^y/Ta Jcl mice [2]): 488 ± 45.8 pg/mL
IRI (plasma insulin level) (KK-A^y/Ta Jcl mice [2]): 1.25 ± 0.28 ng/mL
TC (KK-A^y/Ta Jcl mice [2]): 114.6 ± 4.8 mg/dL
TG (KK-A^y/Ta Jcl mice [2]): 72.7 ± 4.7 mg/dL
Blood-sugar level Day 2 (KK-A^y/Ta Jcl mice [3]; 16.8 mg/100 g-food admixture): 323.3 ± 15.7 mg/dL
Blood-sugar level Day 5 (KK-A^y/Ta Jcl mice [3]; 16.8 mg/100 g-food admixture): 350.0 ± 13.6 mg/dL
Blood-sugar level Day 7 (KK-A^y/Ta Jcl mice [3]; 16.8 mg/100 g-food admixture): 311.3 ± 19.4 mg/dL
Blood-sugar level Day 14 (KK-A^y/Ta Jcl mice [3]; 16.8 mg/100 g-food admixture): 270.5 ± 10.8 mg/dL
Blood-sugar level Day 1 (KK-A^y/Ta Jcl mice [3]; [8]): 309.3 ± 21.2 mg/dL
Blood-sugar level before administration (KK-A^y/Ta Jcl mice [4]; Day 1, before single oral administration of 30 mg/kg (baseline)): 440.6 ± 24.3 mg/dL
Blood-sugar level Day 3 (KK-A^y/Ta Jcl mice [4]; [9]): 224.4 ± 14.4 mg/dL
Blood-sugar level Day 11 (KK-A^y/Ta Jcl mice [4]; [9]): 220.3 ± 8.2* mg/dL
Blood-sugar lowering action vs control medium group (in words) (KK-A^y/Ta Jcl mice [4]; single administration 30 mg/kg, 6 hours after administration): failed to elicit any significant blood-sugar lowering action
Blood-sugar level 6 hrs. after administration (KK-A^y/Ta Jcl mice [4]; single oral administration, 30 mg/kg): 287.9 ± 28.6 mg/dL
Effect on mouse body-weight vs control medium group (in words) [5]: significant elevation in the body weight
Body weight ([5]; 30 mg/kg p.o.): 31.7 ± 0.8 g
Body weight Day 2 ([6]; 16.8 mg/100 g-food admixture): 30.4 ± 0.7 g
Body weight Day 5 ([6]; 16.8 mg/100 g-food admixture): 33.3 ± 0.8 g
Body weight Day 7 ([6]; 16.8 mg/100 g-food admixture): 34.6 ± 0.6 g
Body weight Day 14 ([6]; 16.8 mg/100 g-food admixture): 39.4 ± 1.1 g
Body weight Day 1 [6, 8]: 29.8 ± 0.7 g
Effect on body weight (in words) ([6]; food admixture 16.8 mg/100 g-food, time course): tendency to elevate the body weight
